# Measurements taken from PMC4728427, “Mechanism of allosteric activation of TMEM16A/ANO1 channels by a commonly used chloride channel blocker” (British Journal of Pharmacology, 2016).
# Experiments:
# [1] = tested on: non‐transfected HEK‐293T cells; assay: Whole-cell endogenous currents in non-transfected cells with extracellular A9C; type: cell-based; conditions: +100 mV, 3000 μM [A9C]ext; without A9C 3.6 ± 0.8
# Procedure: Current versus V m relationships were constructed by measuring currents in response to 1 s V m steps (test pulses) from −100 to +100 mV in 40 mV increments (unless stated otherwise) after a 1 s V m step to +70 mV (pre‐pulse). Pulses were elicited every 2 s from a holding V m of 0 mV. Steady‐state currents were measured at the end of the test pulses. As detailed in the Results, in the presence of 300 nM [Ca^2+]i and extracellular A9C, the test‐pulse currents reached a peak within the first ~50 ms of the test pulse. These peak currents were also measured and plotted against the V m of the test pulse. Current density was obtained by dividing the current amplitude for the cell capacitance.
# To test the possibility that A9C activated endogenous currents in HEK‐293T cells, the effect of [A9C]ext (3000 μM) on non‐transfected cells was assessed. No significant increase in current was observed relative to the small endogenous currents measured in non‐transfected cells in the absence of [A9C]ext (Figure 1A). For example, at +100 mV, the current recorded from non‐transfected HEK‐293T cells in the absence and presence of 3000 μM [A9C]ext was 3.6 ± 0.8 pA∙pF^−1 (n = 6) and 3.7 ± 0.7 pA∙pF^−1 (n = 6) respectively.
# [2] = molecular target: T1, Mouse TMEM16A (Mus musculus, UniProt Q8BHY3); assay: Steady-state activation curve (conductance versus Vm, Boltzmann fit); type: cell-based
# T1 construct: expressed in transfected cells; host or cells: HEK-293T
# T1 sequence (Q8BHY3 1-960): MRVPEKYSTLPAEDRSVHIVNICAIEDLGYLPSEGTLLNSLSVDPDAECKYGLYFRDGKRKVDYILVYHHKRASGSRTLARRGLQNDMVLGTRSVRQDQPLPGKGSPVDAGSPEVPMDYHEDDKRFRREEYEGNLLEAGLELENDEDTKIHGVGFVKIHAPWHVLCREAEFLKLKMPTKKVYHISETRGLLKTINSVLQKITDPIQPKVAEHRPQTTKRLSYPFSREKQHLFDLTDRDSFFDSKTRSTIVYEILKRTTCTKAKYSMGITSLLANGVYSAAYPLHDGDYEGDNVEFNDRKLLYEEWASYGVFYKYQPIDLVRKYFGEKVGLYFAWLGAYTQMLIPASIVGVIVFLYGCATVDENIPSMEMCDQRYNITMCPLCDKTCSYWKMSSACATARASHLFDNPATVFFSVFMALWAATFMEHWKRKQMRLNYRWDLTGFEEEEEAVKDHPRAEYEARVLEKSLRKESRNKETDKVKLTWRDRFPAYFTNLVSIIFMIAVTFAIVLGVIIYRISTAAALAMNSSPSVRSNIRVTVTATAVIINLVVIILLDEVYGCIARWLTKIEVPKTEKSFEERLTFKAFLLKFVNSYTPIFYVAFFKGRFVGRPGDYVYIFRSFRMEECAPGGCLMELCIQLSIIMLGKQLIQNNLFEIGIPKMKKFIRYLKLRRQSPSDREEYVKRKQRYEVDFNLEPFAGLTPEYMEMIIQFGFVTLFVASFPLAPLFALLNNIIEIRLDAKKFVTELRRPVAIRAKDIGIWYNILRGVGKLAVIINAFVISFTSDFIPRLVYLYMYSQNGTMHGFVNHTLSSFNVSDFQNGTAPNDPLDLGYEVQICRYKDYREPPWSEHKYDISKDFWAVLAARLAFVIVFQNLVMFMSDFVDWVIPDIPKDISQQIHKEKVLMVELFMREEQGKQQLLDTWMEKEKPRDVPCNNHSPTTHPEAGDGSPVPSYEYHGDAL
# Procedure: The voltage‐dependence of TMEM16A channels was assessed by constructing conductance (G) versus V m relationships in the presence of various [Ca^2+]i. A 1 s pre‐pulse applied to different V m (from −100 to +180 mV in 40 mV increments) was followed by a 0.5 s tail pulse to −60 mV. These pulses were elicited every 2 s from a holding V m of 0 mV. Tail currents were fitted with a single exponential function and the instantaneous tail current amplitude (I tail) estimated from extrapolation of the fit to the beginning of the tail pulse. G was calculated as G = I tail/(V m − E Cl), and normalized G (G/G max) was plotted against the V m of the pre‐pulse. The G versus V m relationships were fitted with the Boltzmann equation of the following form: (5) G/Gmax=1/1+expzgV0.5−VF/RT,
# where z g is the number of gating charges moving through the applied transmembrane electric field during channel activation, and V 0.5 is the voltage at which the G is half‐maximal and depends on the conformational energy required for the channel to open.
# To examine the possible effects of A9C on TMEM16A channel [Ca^2+]i‐sensitivity, the conductance versus V m relationships were assessed at various [Ca^2+]i in the absence or presence of various [A9C]ext (Figure 10 and Table 3). In the absence of extracellular A9C, V 0.5 (derived from fit with Equation (5)) shifted progressively to lower values as the [Ca^2+]i was increased from 300 to 1000 nM (Table 3). Extracellular A9C dramatically shifted the steady‐state activation curves to the left (Figure 10 and Table 3) to a similar extent for all [Ca^2+]i tested.
# [3] = tested on: native CaCCs in rabbit pulmonary artery smooth muscle cells; conditions: cited from earlier work
# [4] = ~300 nM [Ca2+]i, 300 μM [A9C]ext
# [5] = ~300 nM [Ca2+]i, 1000 μM [A9C]ext
# [6] = ~600 nM [Ca2+]i, 300 μM [A9C]ext
# [7] = ~600 nM [Ca2+]i, 1000 μM [A9C]ext
# [8] = ~1000 nM [Ca2+]i, 300 μM [A9C]ext
# [9] = ~1000 nM [Ca2+]i, 1000 μM [A9C]ext
smiles,measurement,setting,value
"O=C(O)c1c2ccccc2cc2ccccc12 [A9C, Anthracene‐9‐carboxylic acid]",current density in non-transfected HEK-293T cells,[1],3.7 ± 0.7 pA∙pF^−1
same,V 0.5 (Boltzmann fit),[2]; [4],124 ± 9 (n = 8) mV
same,z g (Boltzmann fit),[2]; [4],0.7 ± 0.1 (n = 8)
same,V 0.5 (Boltzmann fit),[2]; [5],89 ± 7 (n = 14) mV
same,z g (Boltzmann fit),[2]; [5],0.7 ± 0.1 (n = 14)
same,V 0.5 (Boltzmann fit),[2]; [6],45 ± 4 (n = 8) mV
same,z g (Boltzmann fit),[2]; [6],0.7 ± 0.1 (n = 8)
same,V 0.5 (Boltzmann fit),[2]; [7],18 ± 4 (n = 14) mV
same,z g (Boltzmann fit),[2]; [7],0.7 ± 0.1 (n = 14)
same,V 0.5 (Boltzmann fit),[2]; [8],−15 ± 8 (n = 5) mV
same,z g (Boltzmann fit),[2]; [8],0.9 ± 0.1 (n = 5)
same,V 0.5 (Boltzmann fit),[2]; [9],−22 ± 6 (n = 9) mV
same,z g (Boltzmann fit),[2]; [9],0.9 ± 0.1 (n = 9)
same,E rev of native CaCC currents,[3]; ref Piper and Greenwood (2003),did not change
same,native CaCC tail current increase,"[3]; −80 mV, 500 μM A9C, ref Piper and Greenwood, 2003",~ 3 fold
